# Test results published in ChEMBL document CHEMBL4177650, “Synthesis and biological evolution of hydrazones derived from 4-(trifluoromethyl)benzohydrazide” (Bioorg Med Chem Lett, 2017).
# Calls of active or inactive are those of the source. The rule behind the calls is not given here.
# Experiments:
# [1] = Solubility of the compound in Mueller-Hinton broth; format: physicochemical
# Mycobacterium kansasii [2] = assay: Antimycobacterial activity against Mycobacterium kansasii 6509/80 after 14 days by micromethod; format: functional; conditions: 6509/80, 336 h
# Candida tropicalis [3] = assay: Antifungal activity against Candida tropicalis 156 after 24 hrs by microdilution broth method; format: functional; conditions: Candida tropicalis, 156, 24 h
# Nakaseomyces glabratus [4] = assay: Antifungal activity against Candida glabrata 20/I after 24 hrs by microdilution broth method; format: functional
# Lichtheimia corymbifera = assay: Antifungal activity against Absidia corymbifera 272 after 24 to 48 hrs by microdilution broth method; format: functional, organism-based
# Pseudomonas aeruginosa = assay: Antibacterial activity against gram-negative Pseudomonas aeruginosa CCM 1961 after 48 hrs by microdilution broth method; format: functional, organism-based
# Mycobacterium kansasii [5] = assay: Antimycobacterial activity against Mycobacterium kansasii 6509/96 after 21 days by micromethod; format: functional; conditions: 6509/96, 504 h
# Escherichia coli [6] = assay: Antibacterial activity against gram-negative Escherichia coli CCM 4517 after 24 hrs by microdilution broth method; format: functional; conditions: CCM 4517, 24 h
# Mycobacterium kansasii [7] = assay: Antimycobacterial activity against Mycobacterium kansasii 6509/80 after 7 days by micromethod; format: functional; conditions: 6509/80, 168 h
# [8] = tested on: Trichophyton mentagrophytes; assay: Antifungal activity against Trichophyton mentagrophytes 445 after 72 hrs by microdilution broth method; format: functional; conditions: Trichophyton mentagrophytes, 445, 72 h
# Enterococcus faecalis [9] = assay: Antibacterial activity against gram-positive Enterococcus faecalis J 14365/08 after 48 hrs by microdilution broth method; format: functional; conditions: J 14365/08, 48 h
# Klebsiella pneumoniae [10] = assay: Antibacterial activity against extended spectrum beta-lactamase-positive Klebsiella pneumoniae J 14368/08 after 24 to 48 hrs by microdilution broth method; format: functional, organism-based
# Staphylococcus aureus [11] = assay: Antibacterial activity against gram-positive Staphylococcus aureus CCM 4516/08 after 24 hrs by microdilution broth method; format: functional; conditions: CCM 4516/08, 24 h
# Staphylococcus aureus [12] = assay: Antibacterial activity against gram-positive methicillin-resistant Staphylococcus aureus H 5996/08 after 48 hrs by microdilution broth method; format: functional; conditions: H 5996/08, 48 h
# Nakaseomyces glabratus [13] = assay: Antifungal activity against Candida glabrata 20/I after 48 hrs by microdilution broth method; format: functional
# Klebsiella pneumoniae [14] = assay: Antibacterial activity against gram-negative Klebsiella pneumoniae D 11750/08 after 24 to 48 hrs by microdilution broth method; format: functional, organism-based
# Candida tropicalis [15] = assay: Antifungal activity against Candida tropicalis 156 after 48 hrs by microdilution broth method; format: functional; conditions: Candida tropicalis, 156, 48 h
# Escherichia coli [16] = assay: Antibacterial activity against gram-negative Escherichia coli CCM 4517 after 48 hrs by microdilution broth method; format: functional; conditions: CCM 4517, 48 h
# Mycobacterium kansasii [17] = assay: Antimycobacterial activity against Mycobacterium kansasii 6509/96 after 7 days by micromethod; format: functional; conditions: 6509/96, 168 h
# Mycobacterium kansasii [18] = assay: Antimycobacterial activity against Mycobacterium kansasii 6509/80 after 21 days by micromethod; format: functional; conditions: 6509/80, 504 h
# Trichosporon asahii = assay: Antifungal activity against Trichosporon asahii 1188 after 24 to 48 hrs by microdilution broth method; format: functional, organism-based
# Candida albicans = assay: Antifungal activity against Candida albicans ATCC 44859 after 24 to 48 hrs by microdilution broth method; format: functional, organism-based
# [19] = tested on: Mycobacterium tuberculosis; assay: Antimycobacterial activity against Mycobacterium tuberculosis H37Rv 331/88 after 21 days by micromethod; format: functional; conditions: H37Rv 331/88, 504 h
# [20] = tested on: Staphylococcus epidermidis; assay: Antibacterial activity against gram-positive Staphylococcus epidermidis H 6966/08 after 48 hrs by microdilution broth method; format: functional; conditions: H 6966/08, 48 h
# [21] = tested on: Trichophyton mentagrophytes; assay: Antifungal activity against Trichophyton mentagrophytes 445 after 120 hrs by microdilution broth method; format: functional; conditions: Trichophyton mentagrophytes, 445, 120 h
# [22] = tested on: Staphylococcus epidermidis; assay: Antibacterial activity against gram-positive Staphylococcus epidermidis H 6966/08 after 24 hrs by microdilution broth method; format: functional; conditions: H 6966/08, 24 h
# [23] = tested on: Mycobacterium tuberculosis; assay: Antimycobacterial activity against Mycobacterium tuberculosis H37Rv 331/88 after 14 days by micromethod; format: functional; conditions: H37Rv 331/88, 336 h
# Enterococcus faecalis [24] = assay: Antibacterial activity against gram-positive Enterococcus faecalis J 14365/08 after 24 hrs by microdilution broth method; format: functional; conditions: J 14365/08, 24 h
# Mycobacterium avium [25] = assay: Antimycobacterial activity against Mycobacterium avium 330/88 after 21 days by micromethod; format: functional; conditions: 330/88, 504 h
# Aspergillus fumigatus = assay: Antifungal activity against Aspergillus fumigatus 231 after 24 to 48 hrs by microdilution broth method; format: functional, organism-based
# Mycobacterium kansasii [26] = assay: Antimycobacterial activity against Mycobacterium kansasii 6509/96 after 14 days by micromethod; format: functional; conditions: 6509/96, 336 h
# Mycobacterium avium [27] = assay: Antimycobacterial activity against Mycobacterium avium 330/88 after 14 days by micromethod; format: functional; conditions: 330/88, 336 h
# Pichia kudriavzevii [28] = assay: Antifungal activity against Candida krusei E28 after 24 hrs by microdilution broth method; format: functional; conditions: E28, 24 h
# Staphylococcus aureus [29] = assay: Antibacterial activity against gram-positive methicillin-resistant Staphylococcus aureus H 5996/08 after 24 hrs by microdilution broth method; format: functional; conditions: H 5996/08, 24 h
# Pichia kudriavzevii [30] = assay: Antifungal activity against Candida krusei E28 after 48 hrs by microdilution broth method; format: functional; conditions: E28, 48 h
# Staphylococcus aureus [31] = assay: Antibacterial activity against gram-positive Staphylococcus aureus CCM 4516/08 after 48 hrs by microdilution broth method; format: functional; conditions: CCM 4516/08, 48 h
# MONO-MAC-6 [32] = assay: Cytostatic activity against human MONO-MAC-6 cells incubated overnight followed by compound wash measured after 72 hrs by MTT assay; format: ADME, cell-based; conditions: MONO-MAC-6, 72 h
# [33] = Selectivity index, ratio of IC50 for human HepG2 cells to MIC for Mycobacterium tuberculosis H37Rv 331/88; format: toxicity; conditions: read-out: Selectivity Index
# [34] = Cytotoxicity against mouse bone marrow macrophages after overnight incubation by MTT assay; conditions: BMDM
# MONO-MAC-6 [35] = assay: Cytotoxicity against human MONO-MAC-6 cells after overnight incubation by MTT assay; format: functional, cell-based
# HepG2 [36] = assay: Cytotoxicity against human HepG2 cells after overnight incubation by MTT assay; format: cell-based
# HepG2 [37] = assay: Cytostatic activity against human HepG2 cells incubated overnight followed by compound wash measured after 72 hrs by MTT assay; format: ADME, cell-based; conditions: HepG2, 72 h
SMILES,solubility [1],MIC (Mycobacterium kansasii [2]) [µM],MIC (Candida tropicalis [3]) [µM],MIC (Nakaseomyces glabratus [4]) [µM],MIC (Mycobacterium kansasii [5]) [µM],MIC (Escherichia coli [6]) [µM],MIC (Mycobacterium kansasii [7]) [µM],MIC [8] [µM],MIC (Enterococcus faecalis [9]) [µM],MIC (Staphylococcus aureus [11]) [µM],MIC (Staphylococcus aureus [12]) [µM],MIC (Nakaseomyces glabratus [13]) [µM],MIC (Candida tropicalis [15]) [µM],MIC (Mycobacterium kansasii [17]) [µM],MIC (Mycobacterium kansasii [18]) [µM],MIC [19] [µM],MIC [23] [µM],MIC (Mycobacterium avium [25]) [µM],MIC (Mycobacterium kansasii [26]) [µM],MIC (Mycobacterium avium [27]) [µM],further results
O=C(N/N=C/c1ccc(Br)cc1)c1ccc(C(F)(F)F)cc1,Insoluble,,,,,,,,,,,,,,,,,,,,
O=C(N/N=C/c1ccc(O)cc1)c1ccc(C(F)(F)F)cc1,,125,> 125,> 125,500,> 250,62.5,> 125,> 250,250,250,> 125,> 125,250,125,125,125,500,500,250,Activity (Lichtheimia corymbifera): inactive; Activity (Pseudomonas aeruginosa): inactive; Activity (Klebsiella pneumoniae [10]): inactive; Activity (Klebsiella pneumoniae [14]): inactive; MIC (Escherichia coli [16]): > 250 µM; Activity (Trichosporon asahii): inactive; Activity (Candida albicans): inactive; MIC [20]: 125 µM; MIC [21]: > 125 µM; MIC [22]: 125 µM; MIC (Enterococcus faecalis [24]): > 250 µM; Activity (Aspergillus fumigatus): inactive; MIC (Pichia kudriavzevii [28]): > 125 µM; MIC (Staphylococcus aureus [29]): 250 µM; MIC (Pichia kudriavzevii [30]): > 125 µM; MIC (Staphylococcus aureus [31]): 250 µM
NNC(=O)c1ccncc1 [ISONIAZID],,> 250,,,8,,> 250,,,,,,,8,> 250,1,0.5,> 250,8,> 250,
CC12CCC(C/C1=N\NC(=O)c1ccc(C(F)(F)F)cc1)C2(C)C (stereo unspecified),Insoluble,> 250,,,> 250,,> 250,,,,,,,> 250,> 250,4,4,> 250,> 250,> 250,IC50 (MONO-MAC-6 [32]): > 100 µM; selectivity ratio [33]: > 25; IC50 [34]: > 100 µM; IC50 (MONO-MAC-6 [35]): > 100 µM; IC50 (HepG2 [36]): > 100 µM; IC50 (HepG2 [37]): > 100 µM
NNC(=O)c1ccc(C(F)(F)F)cc1,,> 250,> 500,> 500,> 250,> 500,> 250,> 500,> 500,> 500,> 500,> 500,> 500,> 250,> 250,500,250,> 500,> 250,> 500,MIC (Escherichia coli [16]): > 500 µM; MIC [20]: > 500 µM; MIC [21]: > 500 µM; MIC [22]: > 500 µM; MIC (Enterococcus faecalis [24]): > 500 µM; MIC (Pichia kudriavzevii [28]): > 500 µM; MIC (Staphylococcus aureus [29]): > 500 µM; MIC (Pichia kudriavzevii [30]): > 500 µM; MIC (Staphylococcus aureus [31]): > 500 µM
O=C(NN=C1CCCC1)c1ccc(C(F)(F)F)cc1,,> 1000,,,1000,,500,,,,,,,500,> 1000,500,500,> 125,1000,> 125,
